Assay results published in US20070184490A1, “Neuronal nicotinic receptor ligands and their use” (priority 2006, published 2007).

What was measured:
[1] = target: T1, α4β2 neuronal nicotinic receptor subtype (Rattus norvegicus, UniProt P09483+P12390); test: [3H]-cytisine binding assay, rat brain membrane preparation; settings: [3H]-cytisine binding site; read-out: binding affinity Ki
T1 construct: Membrane enriched fractions from rat brain minus cerebellum; tissue ABS Inc., Wilmington, DE; host or cells: rat brain minus cerebellum, membrane enriched fractions
Description: The method can be accomplished under any suitable binding conditions. […] IC50 and Ki values can be determined from data obtained in the [^3H]-cytisine binding assay.
Binding conditions were modified from the procedures described in Pabreza L A, Dhawan, S, Kellar K J, [^3H]-Cytisine Binding to Nicotinic Cholinergic Receptors in Brain, Mol. Pharm. 39: 9-12, 1991. Membrane enriched fractions from rat brain minus cerebellum (ABS Inc., Wilmington, DE) were slowly thawed at 4° C., washed and resuspended in 30 volumes of BSS-Tris buffer (120 mM NaCl/5 mM KCI/2 mM CaCl2/2 mM MgCl2/50 mM Tris-Cl, pH 7.4, 4° C.). Samples containing 100-200 μg of protein and 0.75 nM [^3H]-cytisine (30 Ci/mmol; Perkin Elmer/NEN Life Science Products, Boston, MA) were incubated in a final volume of 500 μL for 75 minutes at 4° C. Seven log-dilution concentrations of each compound were tested in duplicate. Non-specific binding was determined in the presence of 10 μM (−)-nicotine. Bound radioactivity was isolated by vacuum filtration onto prewetted glass fiber filter plates (Millipore, Bedford, MA) using a 96-well filtration apparatus (Packard Instruments, Meriden, CT) and were then rapidly rinsed with 2 mL of ice-cold BSS buffer (120 mM NaCl/5 mM KCl/2 mM CaCl2/2 mM MgCl2). Packard MicroScint-20® scintillation cocktail (40 μL) was added to each well and radioactivity determined using a Packard TopCount® instrument. The IC50 values were determined by nonlinear regression in Microsoft Excel® software. Ki values were calculated from the IC50s using the Cheng-Prusoff equation, where Ki=IC50/1+[Ligand]/KD].

[2] = tested on: adults with ADHD; settings: transdermal, 32 adults; cited from earlier work

T1 sequence (P09483 31-630): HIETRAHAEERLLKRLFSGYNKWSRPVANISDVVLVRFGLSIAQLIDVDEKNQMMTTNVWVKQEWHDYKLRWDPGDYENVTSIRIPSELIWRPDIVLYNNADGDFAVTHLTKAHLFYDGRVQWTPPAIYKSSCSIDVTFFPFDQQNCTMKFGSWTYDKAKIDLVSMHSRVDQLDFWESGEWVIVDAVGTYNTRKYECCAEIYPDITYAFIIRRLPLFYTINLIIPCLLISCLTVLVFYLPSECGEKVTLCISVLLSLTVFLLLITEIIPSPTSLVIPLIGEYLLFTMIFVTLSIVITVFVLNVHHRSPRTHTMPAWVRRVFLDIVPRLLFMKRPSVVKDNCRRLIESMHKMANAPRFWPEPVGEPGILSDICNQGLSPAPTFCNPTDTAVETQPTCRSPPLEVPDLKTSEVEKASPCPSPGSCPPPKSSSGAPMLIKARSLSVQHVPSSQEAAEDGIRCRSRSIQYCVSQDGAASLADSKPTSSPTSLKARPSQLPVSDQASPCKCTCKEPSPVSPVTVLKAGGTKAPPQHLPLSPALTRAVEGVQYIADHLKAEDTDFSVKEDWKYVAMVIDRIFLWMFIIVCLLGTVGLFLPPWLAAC
T1 sequence (P12390 25-500): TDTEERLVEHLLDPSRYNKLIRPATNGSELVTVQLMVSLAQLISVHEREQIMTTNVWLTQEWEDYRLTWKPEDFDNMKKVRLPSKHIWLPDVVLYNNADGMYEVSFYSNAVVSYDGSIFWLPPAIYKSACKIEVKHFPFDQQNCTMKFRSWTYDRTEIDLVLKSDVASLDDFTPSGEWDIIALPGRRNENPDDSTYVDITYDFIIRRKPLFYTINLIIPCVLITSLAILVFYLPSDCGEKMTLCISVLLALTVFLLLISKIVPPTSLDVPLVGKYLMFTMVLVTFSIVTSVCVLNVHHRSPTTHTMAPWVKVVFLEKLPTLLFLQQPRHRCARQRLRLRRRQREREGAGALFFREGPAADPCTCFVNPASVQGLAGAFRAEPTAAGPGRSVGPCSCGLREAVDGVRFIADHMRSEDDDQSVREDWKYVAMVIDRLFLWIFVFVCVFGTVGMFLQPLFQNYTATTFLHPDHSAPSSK

| Structure (SMILES) | Ki [1] [nM] | efficacy in treating ADHD [2] |
| --- | --- | --- |
| Clc1ccc(-c2cc(OC[C@@H]3CCCN3)cnc2Cl)cc1 | 0.04 |  |
| c1ccc2ncc(N3CC4CNCC4C3)cc2c1 (stereo not shown) | 1.5 |  |
| c1cncc(N2CC[C@@H]3CNC[C@@H]32)c1 [(R,R)-1-(pyridin-3-yl)-octahydro-pyrrolo[3,4-b]pyrrole] | 8.8 |  |
| Cc1cc([C@@H]2CCCN2C)on1 [ABT-418] |  | effective in treating ADHD |
